According to patent US10189839B2, “Tricyclic imidazole compounds as inhibitors of tryptophan hydroxylase” (ACTELION PHARMACEUTICALS LTD, priority 2013, dated 2019):

Biological target: T1, full length human TPH1 (Homo sapiens, UniProt P17752)
T1 construct: To generate the enzyme, full length human TPH1 is cloned into the plasmid pET20b(+); made in house; host or cells: E. coli
T1 sequence (P17752 1-444): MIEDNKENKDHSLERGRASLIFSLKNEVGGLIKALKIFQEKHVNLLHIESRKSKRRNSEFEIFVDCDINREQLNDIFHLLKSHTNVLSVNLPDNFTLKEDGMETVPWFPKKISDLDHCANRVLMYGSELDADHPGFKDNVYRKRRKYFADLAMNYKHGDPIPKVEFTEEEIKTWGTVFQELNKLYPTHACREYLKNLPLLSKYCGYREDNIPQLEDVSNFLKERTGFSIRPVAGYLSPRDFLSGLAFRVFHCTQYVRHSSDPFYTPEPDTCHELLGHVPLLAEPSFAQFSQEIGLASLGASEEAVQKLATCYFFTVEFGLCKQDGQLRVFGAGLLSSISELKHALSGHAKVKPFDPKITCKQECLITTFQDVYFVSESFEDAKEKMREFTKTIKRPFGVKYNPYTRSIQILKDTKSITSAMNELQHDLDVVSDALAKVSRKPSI
Assay: Biochemical in vitro assay using fluorescence readout (TPH1 enzyme activity)
Details: Table 1, mean where determined several times
How it was run: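 E. coli-expressed full-length human TPH1 (40-80 nM), affinity- and size-exclusion-purified, incubated 60 min at 15° C. in 0.1M Tris-HCl pH 7.6 with 1 mM DTT, 0.2 mg/ml catalase, 100 μM 6-methyltetrahydropterine and 40 μM L-tryptophan. 5-Hydroxy-L-tryptophan read by fluorescence (ex 300/em 540 nm) after HClO4 quench; IC50 versus vehicle, mean where repeated.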

SMILES | IC50 [nM]
CCc1nc(NS(C)(=O)=O)ccc1OCC(=O)N1CCc2nc3n(c2C1c1sc(C)nc1C)CCS3 (stereo not drawn) [Example 4.5.1, N-(5-(2-(5-(2,4-dimethylthiazol-5-yl)-2,3,7,8-tetrahydrothiazolo[2′,3′:2,3]imidazo[4,5-c]pyridin-6(5H)-yl)-2-oxoethoxy)-6-ethylpyridin-2-yl)methanesulfonamide] | 16
CNC(=O)c1ccc(OCC(=O)N2CCc3nc4n(c3C2c2ccc(Cl)cc2F)CCN(C(C)=O)C4)c(Cl)n1 (stereo not drawn) [Example 5.1.2, 5-(2-(7-acetyl-1-(4-chloro-2-fluorophenyl)-3,4,6,7,8,9-hexahydropyrido[4′,3′:4,5]imida-zo[1,2-a]pyrazin-2(1H)-yl)-2-oxoethoxy)-6-chloro-N-methylpicolinamide] | 13
CC(=O)N1CCn2c(nc3c2C(c2ncc(C4CC4)cc2F)N(C(=O)COc2cc(F)cnc2Cl)CC3)C1 (stereo not drawn) [Example 5.4.7, 1-(7-acetyl-1-(5-cyclopropyl-3-fluoropyridin-2-yl)-3,4,6,7,8,9-hexahydropyrido[4′,3′:4,5]imidazo[1,2-a]pyrazin-2(1H)-yl)-2-((2-chloro-5-fluoropyridin-3-yl)oxy)ethanone] | 431
CC(=O)N1CCn2c(nc3c2C(c2ccc(C4CC4)cc2F)N(C(=O)COc2cccnc2C(F)(F)F)CC3)C1 (stereo not drawn) [Example 5.2.15, 1-(7-acetyl-1-(4-cyclopropyl-2-fluorophenyl)-3,4,6,7,8,9-hexahydropyrido[4′,3′:4,5]imidazo[1,2-a]pyrazin-2(1H)-yl)-2-((2-(trifluoromethyl)pyridin-3-yl)oxy)ethanone] | 10
Cc1nc(C)c(C2c3c(nc4n3CCCC4)CCN2C(=O)COc2ccc(N(C)S(C)(=O)=O)nc2Cl)s1 (stereo not drawn) [Example 1.10.12, N-(6-chloro-5-(2-(1-(2,4-dimethylthiazol-5-yl)-3,4,6,7,8,9-hexahydroimidazo[1,2-a:5,4-c′]dipyridin-2(1H)-yl)-2-oxoethoxy)pyridin-2-yl)-N-methylmethanesulfonamide] | 20
O=C(NC1CC1)c1ccc(OCC(=O)N2CCc3nc4n(c3C2c2ccc(C3CC3)cc2F)CCS4)c(Cl)n1 (stereo not drawn) [Example 4.3.3, 6-chloro-N-cyclopropyl-5-(2-(5-(4-cyclopropyl-2-fluorophenyl)-2,3,7,8-tetrahydrothiazolo[2′,3′:2,3]imidazo[4,5-c]pyridin-6(5H)-yl)-2-oxoethoxy)picolinamide] | 14
O=C(COc1ccc(-c2ncco2)nc1Cl)N1CCc2nc3n(c2C1c1ccc(C2CC2)cc1F)CCCC3 (stereo not drawn) [Example 1.8.2, 2-((2-chloro-6-(oxazol-2-yl)pyridin-3-yl)oxy)-1-(1-(4-cyclopropyl-2-fluorophenyl)-3,4,6,7,8,9-hexahydroimi-dazo[1,2-a:5,4-c′]dipyridin-2(1H)-yl)ethanone] | 17
CCc1nc(C)ccc1OCC(=O)N1CCc2nc3n(c2C1c1ccc(C2CC2)cc1F)CCNC3 (stereo not drawn) [Example 5.2.3, 1-(1-(4-cyclopropyl-2-fluorophenyl)-3,4,6,7,8,9-hexahydropyrido[4′,3′:4,5]imidazo[1,2-a]pyrazin-2(1H)-yl)-2-((2-ethyl-6-methylpyridin-3-yl)oxy)ethanone] | 54
CCc1nc(C(=O)NC2CC2)ccc1OCC(=O)N1CCc2nc3n(c2C1c1ncc(C2CC2)cc1F)CCCC3 (stereo not drawn) [Example 1.3.2, N-cyclopropyl-5-(2-(1-(5-cyclopropyl-3-fluoropyridin-2-yl)-3,4,6,7,8,9-hexahydroimidazo[1,2-a:5,4-c′]dipyridin-2(1H)-yl)-2-oxoethoxy)-6-ethylpicolinamide] | 7
CCc1nc(NS(C)(=O)=O)ccc1OCC(=O)N1CCc2nc3n(c2C1c1ccc(C)c(F)c1F)CCS3 (stereo not drawn) [Example 4.4.1, N-(5-(2-(5-(2,3-difluoro-4-methylphenyl)-2,3,7,8-tetrahydrothiazolo[2′,3′:2,3]imidazo[4,5-c]pyridin-6(5H)-yl)-2-oxoethoxy)-6-ethylpyridin-2-yl)methanesulfonamide] | 6
CS(=O)(=O)Nc1ccc(OCC(=O)N2CCc3nc4n(c3C2c2sccc2F)CCOC4)c(Cl)n1 (stereo not drawn) [Example 6.6.3, N-(6-chloro-5-(2-(6-(3-fluorothiophen-2-yl)-3,4,8,9-tetrahydro-1H-pyrido[4′,3′:4,5]imidazo[2,1-c][1,4]oxazin-7(6H)-yl)-2-oxoethoxy)pyridin-2-yl)methanesulfonamide] | 160

Continued, values first:

IC50 [nM] | SMILES
14 | Cc1nc(C)c(C2c3c(nc4n3CCCC4)CCN2C(=O)COc2ccc(N3CCCS3(=O)=O)nc2Cl)s1 (stereo not drawn) [Example 1.10.14, 2-((2-chloro-6-(1,1-dioxidoisothiazolidin-2-yl)pyridin-3-yl)oxy)-1-(1-(2,4-dimethylthiazol-5-yl)-3,4,6,7,8,9-hexahydroimidazo[1,2-a:5,4-c′]dipyridin-2(1H)-yl)ethanone]
15 | CN(C)C(=O)c1ccc(OCC(=O)N2CCc3nc4n(c3C2c2ccc(Cl)cc2F)CCCC4)c(Cl)n1 (stereo not drawn) [Example 1.1.1, 6-chloro-5-(2-(1-(4-chloro-2-fluorophenyl)-3,4,6,7,8,9-hexahydroimidazo[1,2-a:5,4-c′]dipyridin-2(1H)-yl)-2-oxoethoxy)-N,N-dimethylpicolinamide]
27 | Cc1ccc(C2c3c(nc4n3CCCC4)CCN2C(=O)COc2ccc(C(=O)N(C)C3CC3)nc2Cl)c(F)c1F (stereo not drawn) [Example 1.9.3, 6-chloro-N-cyclopropyl-5-(2-(1-(2,3-difluoro-4-methyl-phenyl)-3,4,6,7,8,9-hexahydroimidazo[1,2-a:5,4-c′]di-pyridin-2(1H)-yl)-2-oxoethoxy)-N-methylpicolinamide]
21 | O=C(COc1ccc(-c2ncco2)nc1Cl)N1CCc2nc3n(c2C1c1ccc(Cl)cc1F)CCCC3 (stereo not drawn) [Example 1.1.5, 1-(1-(4-chloro-2-fluorophenyl)-3,4,6,7,8,9-hexahydro-imidazo[1,2-a:5,4-c′]dipyridin-2(1H)-yl)-2-((2-chloro-6-(oxazol-2-yl)pyridin-3-yl)oxy)ethanone]
9 | Cc1ccc(C2c3c(nc4n3CCCC4)CCN2C(=O)COc2ccc(N3CCCS3(=O)=O)nc2Cl)c(F)c1F (stereo not drawn) [Example 1.9.6, 2-((2-chloro-6-(1,1-dioxidoisothiazolidin-2-yl)pyridin-3-yl)oxy)-1-(1-(2,3-difluoro-4-methylphenyl)-3,4,6,7,8,9-hexahydroimidazo[1,2-a:5,4-c′]dipyridin-2(1H)-yl)ethanone]
18 | COc1ccc(C2c3c(nc4n3CCCC4)CCN2C(=O)COc2ccc(C(=O)NC3CC3)nc2Cl)c(F)c1 (stereo not drawn) [Example 1.21.1, 6-chloro-N-cyclopropyl-5-(2-(1-(2-fluoro-4-methoxyphenyl)-3,4,6,7,8,9-hexahydroimidazo[1,2-a:5,4-c′]dipyridin-2(1H)-yl)-2-oxoethoxy)picolinamide]
7 | O=C(COc1ccc(N2CCCS2(=O)=O)nc1Cl)N1CCc2nc3n(c2C1c1ccc(Cl)cc1F)CCS3 (stereo not drawn) [Example 4.1.2, 1-(5-(4-chloro-2-fluorophenyl)-2,3,7,8-tetrahydrothiazolo[2′,3′:2,3]imidazo[4,5-c]pyridin-6(5H)-yl)-2-((2-chloro-6-(1,1-dioxidoisothiazolidin-2-yl)pyridin-3-yl)oxy)ethanone]
8 | CCc1nc(N2CCCS2(=O)=O)ccc1OCC(=O)N1CCc2nc3n(c2C1c1sc(C)nc1C)CCC3 (stereo not drawn) [Example 2.4.1, 1-(1-(2,4-dimethylthiazol-5-yl)-3,4,7,8-tetrahydro-1H-pyrrolo[2′,1′:2,3]imidazo[4,5-c]pyridin-2(6H)-yl)-2-((6-(1,1-dioxidoisothiazolidin-2-yl)-2-ethylpyridin-3-yl)oxy)ethanone]
13 | CS(=O)(=O)Nc1ccc(OCC(=O)N2CCc3nc4n(c3C2c2ccc(Cl)cc2F)CCC4)c(Cl)n1 (stereo not drawn) [Example 2.1.1, N-(6-chloro-5-(2-(1-(4-chloro-2-fluorophenyl)-3,4,7,8-tetrahydro-1H-pyrrolo[2′,1′:2,3]imidazo[4,5-c]pyridin-2(6H)-yl)-2-oxoethoxy)pyridin-2-yl)methanesulfonamide]
28 | N#Cc1ccc(C2c3c(nc4n3CCCC4)CCN2C(=O)COc2ccc(C(=O)NC3CC3)nc2Cl)c(F)c1 (stereo not drawn) [Example 1.22.2, 6-chloro-5-(2-(1-(4-cyano-2-fluorophenyl)-3,4,6,7,8,9-hexahydroimidazo[1,2-a:5,4-c′]dipyridin-2(1H)-yl)-2-oxoethoxy)-N-cyclopropylpicolinamide]

Same assay, conditions: Table 2

IC50 [nM] | SMILES
844 | CNC(=O)c1csc(C2c3c(nc4n3CCCC4)CCN2C(=O)COc2ccc(NS(C)(=O)=O)nc2Cl)n1 (stereo not drawn) [Example 1.7.1, 2-(2-(2-((2-Chloro-6-(methylsulfonamido)pyridin-3-yl)oxy)acetyl)-1,2,3,4,6,7,8,9-octahydroimidazo[1,2-a:5,4-c′]dipyridin-1-yl)-N-methylthiazole-4-carboxamide]

Test system: 5HT
Assay: not given
Details: mice; cited from earlier work

SMILES | brain 5HT concentrations | gut 5HT
Nc1nc(OC(c2ccc(-c3cccc(F)c3)cc2)C(F)(F)F)cc(-c2ccc(C[C@H](N)C(=O)O)cc2)n1 (stereo partly drawn) [LP533401] | without effecting brain concentrations | lower gut 5HT
